These results are taken from patent publication US9447062B2, “Manumycin-type metabolite called Colabomycin E which inhibits caspase 1 and creation of interleukins, strain produces the Colabomycin E and a method of a production of the Colabomycin E” (BIOLOGY CENTRE AS CR, v. v. i., priority 2014, dated 2016).

Assay [1] relates to IL-1β release from THP-1 cells (caspase 1). Put plainly: IL-1β release from TNFα-stimulated THP-1 cells. Format: cell-based, human. The following applies: for concentration at which the dose curve reached an inhibitory plateau (IL-1β release) / concentration from which IL-1β release is significantly inhibited: TNFα 50 ng/ml. As to the method:
(§1) Antibacterial activity of colabomycin E was tested by disc diffusion method. The strains were cultivated on MH agar plates at 36° C., aerobically for 18 hrs. For streptococci the media was supplemented with 5% sheep blood and the bacteria were cultivated aerobically for 20 hrs in 5% CO2. Colabomycin E samples dissolved in dioxane were applied to standard 6 mm discs; therefore zone diameters below 7 mm indicate no growth inhibition. The anti-inflammatory effect of colabomycin E was assayed on the TNFα-stimulated human monocyte/macrophage cell line THP-1. The cells were cultured in RPMI-1640 medium, supplemented with 10% heat inactivated fetal calf serum (FCS), L-glutamine, penicillin and streptomycin. Cells were seeded into 6-well tissue culture plates at a density of 2×10^6 cells per 2 ml per well and cultured under a 5% CO2 atmosphere at 37° C. THP-1 cells were stimulated with TNFα (50 ng/ml) under serum free conditions in the presence of colabomycin or manumycin A.
Unstimulated cells were used as controls. IL-1β release was measured through flow cytometry in culture supernatants by Fluorokine MAP human base kit A using the Luminex^100 System. In the first step, 50 μl of the samples/standards were incubated with 50 μl of microparticles for 3 hours at RT on a horizontal orbital microplate shaker. After washing the unbound substances, 50 μl of the secondary antibodies conjugated with biotin was added to each well and incubated the samples/standards for another 1 hour. After the incubation, the unbound secondary antibodies were washed and 50 μl of the Streptavidin-PE was added. After the 30 minutes of incubation, the samples/standards were washed and resuspended the microparticles in 100 μl of wash buffer. Samples/standards were read using a Luminex analyzer.

For assay [2], the system named is IL-18 production in THP-1 cells. Put plainly: IL-18 production in THP-1 cells stimulated with TNFα. It is filed as cell-based, human. Particulars: 0.5 μM. As to the method:
as §1

Assay [3] concerns human leukemic Jurkat cells. Put plainly: Pro-apoptotic features, Annexin V-FITC flow cytometry. Format: cell-based. The following applies: 4 hours. As to the method:
Proapoptotic features were assayed using human Jurkat cells. The cells were cultivated in RPMI medium supplemented with 10% FBS and antibiotics. Just before experiments cells were plated into the fresh medium at 4×10^5 cells/ml in 24-well cultivation plates. They were treated with increasing concentrations of manumycin A (positive control) and colabomycin E for 4 hours. Cells were then harvested by centrifugation and apoptotic cells were labeled by Annexin V-FITC. The stained cells were subsequently analyzed by flow cytometry analysis in a Guava EasyCyte flow cytometer and the obtained data were evaluated using FlowJo software.)

For a further assay, the system named is Gram^−. Put plainly: Antibacterial activity, disc diffusion method. Format: cell-based. The method, then: (§2) FIG. 10: Antibacterial features of colabomycin E—disc diffusion method. Colabomycin E samples were applied to standard 6 mm discs; therefore the zone diameters bellow 7 mm mean no growth inhibition. The strains kindly provided by the Czech National Collection of Type Cultures.
as §1

Assay [4] concerns Gram^+ bacteria, mainly staphylococci and streptococci. Put plainly: Antibacterial activity, disc diffusion method. It is filed as cell-based. The method, then: as §2, §1
The subject of assay [5] is IL-6 production in THP-1 cells. Put plainly: IL-6 production in THP-1 cells stimulated with TNFα. The following applies: 0.5 μM. It is filed as cell-based, human. As to the method:
as §1

In assay [6] the test system is IL-8 production in THP-1 cells. Put plainly: IL-8 production in THP-1 cells stimulated with TNFα. It is filed as cell-based, human. The following applies: 0.5 μM. As to the method:
as §1

Turning to `CCCC[C@@H](C)/C=C(C)/C=C(\C)C(=O)NC1=C[C@@](O)(/C=C/C=C/C=C/C(=O)NC2=C(O)CCC2=O)[C@@H]2O[C@@H]2C1=O` [manumycin A, reference compound], in assay [1], the “concentration at which the dose curve reached an inhibitory plateau (IL-1β release)” value was determined as 0.5 µM and the “concentration from which IL-1β release is significantly inhibited” value came out at 0.25 µM.
Regarding Colabomycin E, the IL-18 production entry in assay [2] is reported as “inhibit”. In assay [3] (5 μM), the pro-apoptotic features result is reported as “weak pro-apoptotic features”. Also, the “pro-apoptotic effect relative to manumycin A” value in assay [3] is listed as “substantially weaker”. In addition, the “effect on Gram− bacteria” value with Gram^− is listed as “no effect”. For the same compound, in assay [4], the “anti-bacterial effects (overall)” value is listed as “quite mild”. The “growth of Gram+ bacteria” value in assay [4] (in higher concentrations) is “suppresses growth”. Further, in assay [1], the “IL-1β release from THP-1 cells” value is on record as “significantly inhibited”, the “concentration at which the dose curve reached an inhibitory plateau (IL-1β release)” value came to 0.5 µM and the “concentration from which IL-1β release is significantly inhibited” value came out at 0.25 µM. Also, in assay [5], the IL-6 production result is “inhibit”. In assay [6], the IL-8 production entry is given as “inhibit”.
